# Reference: ChEMBL document CHEMBL2146453, “Synthesis of novel ursolic acid heterocyclic derivatives with improved abilities of antiproliferation and induction of p53, p21waf1 and NOXA in pancreatic cancer cells” (Bioorg Med Chem, 2012)
# Active and inactive are the calls of the source. The calls are words filed in the database; no cut-off is given here.
# What was measured:
# [1] = test system: ASPC1; assay: Cell cycle arrest in human AsPC1 cells assessed as S phase cells at 8 uM after 24 hrs by flow cytometric analysis (reference value: 12.6%); type: functional
# [2] = test system: PANC-1; assay: Cytotoxicity against human PANC1 cells after 72 hrs by MTT assay; type: functional, cell-based; conditions: PANC-1, 72 h
# [3] = test system: MCF7; assay: Cytotoxicity against human MCF7 cells after 72 hrs by MTT assay; type: functional, cell-based; conditions: MCF7, 72 h
# [4] = test system: ASPC1; assay: Cell cycle arrest in human AsPC1 cells assessed as G1 phase cells at 2 uM after 24 hrs by flow cytometric analysis (reference value: 25.4%); type: functional
# [5] = test system: ASPC1; assay: Cell cycle arrest in human AsPC1 cells assessed as S phase cells at 6 uM after 24 hrs by flow cytometric analysis (reference value: 12.6%); type: functional
# [6] = test system: HepG2; assay: Cytotoxicity against human HepG2 cells after 72 hrs by MTT assay; type: functional, cell-based; conditions: HepG2, 72 h
# [7] = test system: ASPC1; assay: Induction of apoptosis in human AsPC1 cells assessed as sub-G1 phase cells at 2 uM after 24 hrs by flow cytometric analysis (reference value: 1%); type: functional
# [8] = test system: PC-3; assay: Cytotoxicity against human PC3 cells after 72 hrs by MTT assay; type: functional, cell-based; conditions: PC-3, 72 h
# [9] = test system: ASPC1; assay: Ratio of ursolic acid IC50 to compound IC50 for human AsPC1 cells; type: functional
# [10] = test system: ASPC1; assay: Upregulation of NOXA in human AsPC1 cells at 6 to 10 uM after 24 hrs by Western blot analysis; type: functional, cell-based
# [11] = test system: ASPC1; assay: Upregulation of p21 in human AsPC1 cells at 6 to 10 uM after 24 hrs by Western blot analysis; type: functional, cell-based
# [12] = test system: ASPC1; assay: Induction of apoptosis in human AsPC1 cells assessed as sub-G1 phase cells at 8 uM after 24 hrs by flow cytometric analysis (reference value: 1%); type: functional
# [13] = test system: ASPC1; assay: Cell cycle arrest in human AsPC1 cells assessed as S phase cells at 10 uM after 24 hrs by flow cytometric analysis (reference value: 12.6%); type: functional
# [14] = test system: ASPC1; assay: Cell cycle arrest in human AsPC1 cells assessed as G2/M phase cells at 2 uM after 24 hrs by flow cytometric analysis (reference value: 20.7%); type: functional
# [15] = test system: ASPC1; assay: Cell cycle arrest in human AsPC1 cells assessed as G2/M phase cells at 10 uM after 24 hrs by flow cytometric analysis (reference value: 20.7%); type: functional
# [16] = test system: ASPC1; assay: Cell cycle arrest in human AsPC1 cells assessed as S phase cells at 2 uM after 24 hrs by flow cytometric analysis (reference value: 12.6%); type: functional
# [17] = test system: ASPC1; assay: Induction of apoptosis in human AsPC1 cells assessed as sub-G1 phase cells at 6 uM after 24 hrs by flow cytometric analysis (reference value: 1%); type: functional
# [18] = test system: ASPC1; assay: Upregulation of p53 in human AsPC1 cells at 2 to 10 uM after 24 hrs by Western blot analysis; type: functional, cell-based
# [19] = test system: ASPC1; assay: Cell cycle arrest in human AsPC1 cells assessed as G1 phase cells at 6 uM after 24 hrs by flow cytometric analysis (reference value: 25.4%); type: functional
# [20] = test system: ASPC1; assay: Induction of apoptosis in human AsPC1 cells assessed as sub-G1 phase cells at 10 uM after 24 hrs by flow cytometric analysis (reference value: 1%); type: functional
# [21] = test system: A549; assay: Cytotoxicity against human A549 cells after 72 hrs by MTT assay; type: functional, cell-based; conditions: A549, 72 h
# [22] = test system: ASPC1; assay: Cytotoxicity against human AsPC1 cells after 72 hrs by MTT assay; type: functional, cell-based; conditions: ASPC1, 72 h
# [23] = test system: ASPC1; assay: Cell cycle arrest in human AsPC1 cells assessed as G2/M phase cells at 6 uM after 24 hrs by flow cytometric analysis (reference value: 20.7%); type: functional
# [24] = test system: ASPC1; assay: Cell cycle arrest in human AsPC1 cells assessed as G2/M phase cells at 4 uM after 24 hrs by flow cytometric analysis (reference value: 20.7%); type: functional
# [25] = test system: ASPC1; assay: Downregulation of Mcl1 in human AsPC1 cells at 2 to 10 uM after 24 hrs by Western blot analysis; type: functional, cell-based
# [26] = test system: ASPC1; assay: Induction of apoptosis in human AsPC1 cells assessed as sub-G1 phase cells at 4 uM after 24 hrs by flow cytometric analysis (reference value: 1%); type: functional
# [27] = test system: MIA PaCa-2; assay: Cytotoxicity against human MIAPaCa2 cells after 72 hrs by MTT assay; type: functional, cell-based; conditions: MIA PaCa-2, 72 h
# [28] = test system: ASPC1; assay: Cell cycle arrest in human AsPC1 cells assessed as S phase cells at 4 uM after 24 hrs by flow cytometric analysis (reference value: 12.6%); type: functional
# [29] = test system: ASPC1; assay: Cell cycle arrest in human AsPC1 cells assessed as G1 phase cells at 8 uM after 24 hrs by flow cytometric analysis (reference value: 25.4%); type: functional
# [30] = test system: ASPC1; assay: Cell cycle arrest in human AsPC1 cells assessed as G1 phase cells at 10 uM after 24 hrs by flow cytometric analysis (reference value: 25.4%); type: functional
# [31] = test system: ASPC1; assay: Cell cycle arrest in human AsPC1 cells assessed as G2/M phase cells at 8 uM after 24 hrs by flow cytometric analysis (reference value: 20.7%); type: functional
# [32] = test system: ASPC1; assay: Cell cycle arrest in human AsPC1 cells assessed as G1 phase cells at 4 uM after 24 hrs by flow cytometric analysis (reference value: 25.4%); type: functional
compound,measurement,setting,value
COC(=O)[C@]12CC[C@@H](C)[C@H](C)[C@H]1C1=CC[C@@H]3[C@@]4(C)C/C(=C/n5cnnc5)C(=O)C(C)(C)[C@@H]4CC[C@@]3(C)[C@]1(C)CC2,Activity,[1],10.1%
same,IC50,[2],3.5 µM
same,IC50,[3],2.3 µM
same,Activity,[4],23.9%
same,Activity,[5],9.5%
same,IC50,[6],3.2 µM
same,Activity,[7],0.7%
same,IC50,[8],3 µM
same,Ratio IC50,[9],7
same,Activity,[10],Active
same,Activity,[11],Active
same,Activity,[12],3.4%
same,Activity,[13],10.5%
same,Activity,[14],14.9%
same,Activity,[15],28.8%
same,Activity,[16],9.1%
same,Activity,[17],1.2%
same,Activity,[18],Active
same,Activity,[19],36.6%
same,Activity,[20],13.2%
same,IC50,[21],4.9 µM
same,IC50,[22],1.9 µM
same,Activity,[23],24.1%
same,Activity,[24],14.7%
same,Activity,[25],inactive
same,Activity,[26],0.5%
same,IC50,[27],4 µM
same,Activity,[28],9.6%
same,Activity,[29],31.9%
same,Activity,[30],27.3%
same,Activity,[31],23.4%
same,Activity,[32],27.9%
